Assay results reported in US8227240B2, “Systems for screening pharmaceutical chemicals” (The Washington University, priority 2001, dated 2012).

System: reconstituted tissue membrane (fibroblast non-muscle myosin / actin cytoskeleton)
Test: Tissue indentation method in 96-well plate: peak force of reconstituted tissue membrane
Assay type: cell-based
Experimental: A triangular frame made of stainless steel wire 1 mm in diameter was employed as a scaffold on which the reconstituted tissue formed. The wells are slightly tapered toward the bottom and the frame is securely positioned 1 mm above the bottom of the well (FIG. 11a). The non-polymerized solution of collagen containing cells and appropriate cell culture media as described above was poured into the wells filling the wells to a level 3 mm above the bottom (FIG. 11b). The 96-well plate was incubated at 37° C. with 5% CO2. During the incubation, cells compressed collagen matrices by squeezing liquid out from the porous collagen matrix. Without the wire frame, the reconstituted tissue contracted into a small sphere floating in the tissue culture medium. It was discovered that by utilizing different shapes of wire frames the collagen matrix was compressed into shapes corresponding to shapes of the frames. Other wire frame shapes, such as one shown in FIG. 11b, produced tissue strips with different widths. A porous support material such as a Velcro fastener was not required to facilitate tissue adhesion even to the non-porous stainless steel surfaces of a wire. The collagen was compressed to a greater extent at the outer portion of the membrane or strip. Therefore, this outer portion of the membrane can withstand stress produced by the cells and prevented it from ripping the membrane off the wire frame.
To assess the response of the tissue model samples to test agents, the resistance of the tissue samples to stretch is measured by a probe coupled to a force transducer. The stiffness of the tissue is related to the force required to move the probe by a specified amount once the probe contacts the tissue. […]
The stage is raised until the probe tip touches the membrane or strip of reconstituted tissue. Contact of the tip with the sample is detected by a sudden increase in the force registered by the isometric force transducer. […] During this trajectory the tip comes in contact with the tissue specimen and stretches it as the force is continually recorded by a data recorder. […]

In the case of `C=C1[C@@H](C)[C@H]2[C@H](Cc3ccccc3)NC(=O)[C@]23[C@H](OC(C)=O)/C=C/[C@@](C)(O)C(=O)[C@@H](C)C/C=C/[C@H]3[C@@H]1O` [CD, cytochalasin D], the “decrease of peak force from its initial level” value (40 nM CD, nearly 15 min after addition, after 20% FBS) is reported as “about 40%”, the peak force (2 μM CD, 20 min after addition) is reported as “further reduction” and the “reduction of the height of the force peaks” value (96-well plate, after 10% FBS) is reported as 60%.
